# In patent US12252488B2 (Nimbus Saturn, Inc., priority 2021, dated 2025):
# Target: T1, HPK1 (Homo sapiens, UniProt Q92918)
# T1 construct: purchased Invitrogen
# Experiment: HPK1 biochemical enzyme assay (microfluidic mobility shift assay)
# Details: 1000 uM (1 mM) ATP; Caliper mobility shift; 1.5 nM HPK1; 30 min preincubation; read-out: HPK1 1000UMATP caliper IC50
# Outline: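 Microfluidic mobility-shift readout with 1.5 nM HPK1 in pH 7.4 buffer; compounds (ten-point curves, top 3 μM final) preincubated 30 min with enzyme/substrate. Reaction started with 1 mM ATP and 1 μM substrate plus 5 mM MgCl2, run 60 min at RT. IC50 values binned into activity classes.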
# T1 sequence (Q92918 whole entry): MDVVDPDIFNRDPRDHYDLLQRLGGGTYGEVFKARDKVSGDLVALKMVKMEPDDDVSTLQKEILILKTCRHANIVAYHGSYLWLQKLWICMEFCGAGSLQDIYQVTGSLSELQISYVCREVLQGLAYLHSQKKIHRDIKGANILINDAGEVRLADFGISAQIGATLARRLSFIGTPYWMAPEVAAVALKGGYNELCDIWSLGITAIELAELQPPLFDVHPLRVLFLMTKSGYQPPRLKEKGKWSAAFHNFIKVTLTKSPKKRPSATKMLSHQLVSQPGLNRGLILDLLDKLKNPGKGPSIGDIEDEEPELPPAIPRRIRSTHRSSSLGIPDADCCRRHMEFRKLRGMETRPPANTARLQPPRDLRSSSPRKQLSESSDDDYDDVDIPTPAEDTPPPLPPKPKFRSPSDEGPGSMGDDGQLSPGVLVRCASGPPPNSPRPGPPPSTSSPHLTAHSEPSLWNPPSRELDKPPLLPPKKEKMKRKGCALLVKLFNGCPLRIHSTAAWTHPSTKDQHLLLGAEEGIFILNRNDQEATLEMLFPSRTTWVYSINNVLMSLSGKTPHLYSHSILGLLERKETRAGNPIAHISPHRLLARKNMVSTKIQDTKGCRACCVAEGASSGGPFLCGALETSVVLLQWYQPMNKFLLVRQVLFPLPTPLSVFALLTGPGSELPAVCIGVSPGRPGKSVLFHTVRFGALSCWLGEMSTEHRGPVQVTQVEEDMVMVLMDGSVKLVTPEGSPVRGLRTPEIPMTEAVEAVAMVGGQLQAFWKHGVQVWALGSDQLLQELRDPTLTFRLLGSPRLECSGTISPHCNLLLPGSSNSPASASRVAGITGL
row,SMILES,IC50 [nM]
1,"CC(=O)Nc1ccc(F)c(-c2cc(Nc3ccc(N4CCC(O)CC4)cn3)c3c(=O)[nH]ccc3n2)c1 [I-76, N-[4-fluoro-3-[4-[[5-(4-hydroxy-1-piperidyl)-2-pyridyl]amino]-5-oxo-6H-1,6-naphthyridin-2-yl]phenyl] acetamide]",100 to 1000
2,"O=c1[nH]ccc2nc(C3CC3)cc(Nc3ccc(N4CCC(O)CC4)cn3)c12 [I-17, 2-cyclopropyl-4-[[5-(4-hydroxy-1-piperidyl)-2-pyridyl]amino]-6H-1,6-naphthyridin-5-one]",100 to 1000
3,O=C(c1ccc(-c2cc(Nc3ccc(N4CCC(O)CC4)cn3)c3c(=O)[nH]ccc3n2)c(F)c1)N1CCOCC1 [I-120],100 to 1000
4,"CN(C)Cc1ccc(-c2cc(Nc3ccc(N4CCC(O)CC4)cn3)c3c(=O)[nH]ccc3n2)c(F)c1 [I-74, 2-[4-[(dimethyl-amino)methyl]-2-fluoro-phenyl]-4-[[5-(4-hydroxy-1-piperidyl)-2-pyridyl]amino]-6H-1,6-naphthyridin-5-one]",≤ 100
5,"COC1CCN(C(=O)c2ccc(-c3cc(Nc4ccc(N5CCC(O)CC5)cn4)c4c(=O)[nH]ccc4n3)c(F)c2)CC1 [I-136, 2-[2-fluoro-4-(4-methoxy-piperidine-1-carbonyl)phenyl]-4-[[5-(4-hydroxy-1-piperidyl)-2-pyridyl]amino]-6H-1,6-naphthyridin-5-one]",≤ 100
6,"O=C(Nc1ccc(-c2cc(Nc3ccc(C(=O)N4CCCC4)cc3)c3c(=O)[nH]ccc3n2)c(F)c1)C1CCCCC1 [I-160, N-[3-fluoro-4-[5-oxo-4-[4-(pyrrolidine-1-carbonyl)anilino]-6H-1,6-naphthyridin-2-yl]phenyl] cyclohexane carboxamide]",≤ 100
7,"CC(C)(O)c1ccc(-c2cc(Nc3ccc(N4CCC(O)CC4)cn3)c3c(=O)[nH]ccc3n2)c(F)c1 [I-69, 2-[2-fluoro-4-(1-hydroxy-1-methyl-ethyl)phenyl]-4-[[5-(4-hydroxy-1-piperidyl)-2-pyridyl]amino]-6H-1,6-naphthyridin-5-one]",100 to 1000
8,"CC(O)(c1ccc(F)c(-c2cc(Nc3ccc(N4CCC(O)CC4)cn3)c3c(=O)[nH]ccc3n2)c1)C(F)(F)F (centres unmarked) [I-123, 2-[2-fluoro-5-(2,2,2-trifluoro-1-hydroxy-1-methyl-ethyl)phenyl]-4-[[5-(4-hydroxy-1-piperidyl)-2-pyridyl]amino]-6H-1,6-naphthyridin-5-one]",≤ 100
9,"O=c1[nH]ccc2nc(N3CCC[C@@H](O)C3)cc(Nc3ccc(N4CCC(O)CC4)cn3)c12 [I-82, 2-[(3R)-3-hydroxy-1-piperidyl]-4-[[5-(4-hydroxy-1-piperidyl)-2-pyridyl]amino]-6H-1,6-naphthyridin-5-one]",100 to 1000
10,"N#CC1(c2ccc(F)c(-c3cc(Nc4ccc(N5CCC(O)CC5)cn4)c4c(=O)[nH]ccc4n3)c2)CC1 [I-105, 1-[4-fluoro-3-[4-[[5-(4-hydroxy-1-piperidyl)-2-pyridyl]amino]-5-oxo-6H-1,6-naphthyridin-2-yl]phenyl] cyclo-propane-carbonitrile]",> 1000
11,"O=c1[nH]ccc2nc(-c3cccc(CN4CCOCC4)c3F)cc(Nc3ccc(N4CCC(O)CC4)cn3)c12 [I-171, 2-[2-fluoro-3-(morpholino-methyl)phenyl]-4-[[5-(4-hydroxy-1-piperidyl)-2-pyridyl]amino]-6H-1,6-naphthyridin-5-one]",100 to 1000
12,COc1cc(-c2cc(Nc3ccc(N4CCNCC4)cn3)c3c(=O)[nH]ccc3n2)c(F)cc1C(=O)N1CCCCC1 [I-157],> 1000
13,"Cc1c[nH]c(=O)c2c(Nc3ccc(N4CCC(O)CC4)cn3)cc(-c3c(F)cccc3F)nc12 [I-25, 2-(2,6-difluorophenyl)-4-[[5-(4-hydroxy-1-piperidyl)-2-pyridyl]amino]-8-methyl-6H-1,6-naphthyridin-5-one]",100 to 1000
14,"CCC(CC)c1cc(Nc2ccc(N3CCC(O)CC3)cn2)c2c(=O)[nH]ccc2n1 [I-32, 2-(1-ethylpropyl)-4-[[5-(4-hydroxy-1-piperidyl)-2-pyridyl]amino]-6H-1,6-naphthyridin-5-one]",100 to 1000
15,"O=c1[nH]ccc2nc(N3CC[C@H](O)C3)cc(Nc3ccc(N4CCC(O)CC4)cn3)c12 [I-88, 4-[[5-(4-hydroxy-1-piperidyl)-2-pyridyl]amino]-2-[(3S)-3-hydroxy-pyrrolidin-1-yl]-6H-1,6-naphthyridin-5-one]",≤ 100
16,"O=C(Nc1ccc(-c2cc(Nc3ccc(N4CCOCC4)cn3)c3c(=O)[nH]ccc3n2)c(F)c1)C1CCCCC1 [I-159, N-[3-fluoro-4-[4-[(5-morpholino-2-pyridyl)amino]-5-oxo-6H-1,6-naphthyridin-2-yl]phenyl] cyclohexane carboxamide]",≤ 100
17,"O=c1[nH]ccc2nc(-c3cccc(CN4CCCCC4)c3F)cc(Nc3ccc(N4CCC(O)CC4)cn3)c12 [I-183, 2-[2-fluoro-3-(1-piperidyl-methyl)phenyl]-4-[[5-(4-hydroxy-1-piperidyl)-2-pyridyl]amino]-6H-1,6-naphthyridin-5-one]",≤ 100
18,"CC(C)c1ccc(Cl)c(-c2cc(Nc3ccc(N4CCC(O)CC4)cn3)c3c(=O)[nH]ccc3n2)c1 [I-101, 2-(2-chloro-5-isopropyl-phenyl)-4-[[5-(4-hydroxy-1-piperidyl)-2-pyridyl]amino]-6H-1,6-naphthyridin-5-one]",≤ 100
19,"O=c1[nH]cnc2nc(-c3c(F)cccc3F)cc(Nc3ccc(N4CCC(O)CC4)cn3)c12 [I-11, 7-(2,6-difluorophenyl)-5-[[5-(4-hydroxy-1-piperidyl)-2-pyridyl]amino]-3H-pyrido[2,3-d]pyrimidin-4-one]",100 to 1000
20,"CC(O)c1c[nH]c(=O)c2c(Nc3ccc(N4CCC(O)CC4)cn3)cc(-c3c(F)cccc3F)nc12 (centres unmarked) [I-15, 2-(2,6-difluorophenyl)-8-(1-hydroxyethyl)-4-[[5-(4-hydroxy-1-piperidyl)-2-pyridyl]amino]-6H-1,6-naphthyridin-5-one]",100 to 1000
21,"CC(C)(C)c1ccc(F)c(-c2cc(Nc3ccc(N4CCC(O)CC4)cn3)c3c(=O)[nH]ccc3n2)c1 [I-96, 2-(5-tert-butyl-2-fluoro-phenyl)-4-[[5-(4-hydroxy-1-piperidyl)-2-pyridyl]amino]-6H-1,6-naphthyridin-5-one]",100 to 1000
22,"O=C(c1ccc(-c2cc(Nc3ccc(N4CCC5(CCOCC5)CC4)cn3)c3c(=O)[nH]ccc3n2)c(F)c1)N1CCCCC1 [I-148, 2-[2-fluoro-4-(piperidine-1-carbonyl)phenyl]-4-[[5-(3-oxa-9-azaspiro [5.5]undecan-9-yl)-2-pyridyl]amino]-6H-naphthyridin-5-one]",> 1000

# Other lines, results leading:
row,IC50 [nM],SMILES
1,> 1000,"CN1CCN(c2ccc(Nc3cc(-c4ccc(NC(=O)C5CCCCC5)cc4F)nc4cc[nH]c(=O)c34)nc2)CC1 [I-184, N-[3-fluoro-4-[4-[[5-(4-methyl-piperazin-1-yl)-2-pyridyl]amino]-5-oxo-6H-1,6-naphthyridin-2-yl]phenyl] cyclohexane carboxamide]"
2,≤ 100,"CC(O)(c1ccc(F)c(-c2cc(Nc3ccc(N4CCC(O)CC4)cn3)c3c(=O)[nH]ccc3n2)c1)C(F)(F)F (single isomer, unassigned) [I-273, 2-(2-fluoro-5-(1,1,1-tifluoro-2-hydroxy-propan-2-yl)phenyl)-4-((5-(4-hydroxy-piperidin-1-yl)pyridin-2-yl)amino)-1,6-naphthyridin-5(6H)-one]"
3,100 to 1000,"COCCOC1CN(c2ccc(Nc3cc(-c4ccc(NC(=O)C5CCCCC5)cc4F)nc4cc[nH]c(=O)c34)nc2)C1 [I-189, N-[3-fluoro-4-[4-[[5-[3-(2-methoxy-ethoxy)azetidin-1-yl]-2-pyridyl]amino]-5-oxo-6H-1,6-naphthyridin-2-yl]phenyl] cyclohexane carboxamide]"
4,≤ 100,"O=C(Nc1ccc(-c2cc(Nc3ccc(N4CCC(O)CC4)cn3)c3c(=O)[nH]ccc3n2)c(F)c1)[C@@H]1C[C@H]2CC[C@@H]1C2 (racemic) [I-266, (1R,2R,4S)-N-[3-fluoro-4-[4-[[5-(4-hydroxy-1-piperidyl)-2-pyridyl]amino]-5-oxo-6H-1,6-naphthyridin-2-yl]phenyl] norbornane-2-carboxamide]"
5,≤ 100,"O=C(c1cc(F)c(-c2cc(Nc3ccc(N4CCC(O)CC4)cn3)c3c(=O)[nH]ccc3n2)cc1C1CC1)N1CCCCC1 [I-270, 2-[5-cyclopropyl-2-fluoro-4-(piperidine-1-carbonyl)phenyl]-4-[[5-(4-hydroxy-1-piperidyl)-2-pyridyl]amino]-6H-naphthyridin-5-one]"
6,≤ 100,"O=c1[nH]ccc2nc(-c3cc4c(cc3F)CCC4N3CCCCC3)cc(Nc3ccc(N4CCC(O)CC4)cn3)c12 (centres unmarked) [I-249, 2-[6-fluoro-3-(1-piperidyl)indan-5-yl]-4-[[5-(4-hydroxy-1-piperidyl)-2-pyridyl]amino]-6H-naphthyridin-5-one]"
7,100 to 1000,"COc1cc(-c2cc(Nc3cnn(C)c3)c3c(=O)[nH]ccc3n2)c(F)cc1C(=O)N1CCCCC1 [I-199, 2-[2-fluoro-5-methoxy-4-(piperidine-1-carbonyl)phenyl]-4-[(1-methyl-pyrazol-4-yl)amino]-6H-1,6-naphthyridin-5-one]"
8,≤ 100,"CNCc1ccc(-c2cc(Nc3ccc(N4CCC(O)CC4)cn3)c3c(=O)[nH]ccc3n2)c(F)c1 [I-218, 2-[2-fluoro-4-(methyl-amino-methyl)phenyl]-4-[[5-(4-hydroxy-1-piperidyl)-2-pyridyl]amino]-6H-naphthyridin-5-one]"
9,100 to 1000,"CNC1CCCc2c1ccc(F)c2-c1cc(Nc2ccc(N3CCC(O)CC3)cn2)c2c(=O)[nH]ccc2n1 (centres unmarked) [I-224, 2-[6-fluoro-1-(methyl-amino)tetralin-5-yl]-4-[[5-(4-hydroxy-1-piperidyl)-2-pyridyl]amino]-6H-1,6-naphthyridin-5-one]"
10,100 to 1000,"COc1cc(-c2cc(Nc3ccc(N4C[C@H]5COC[C@H]5C4)cn3)c3c(=O)[nH]ccc3n2)c(F)cc1C(=O)N1CCCCC1 [I-229, 4-[[5-[(3aR,6aS)-1,3,3a,4,6,6a-hexahydro-furo[3,4-c]pyrrol-5-yl]-2-pyridyl]amino]-2-[2-fluoro-5-methoxy-4-(piperidine-1-carbonyl)phenyl]-6H-1,6-naphthyridin-5-one]"
